According to patent US7423181B2, “Aminoalkoxy-functional chalcones” (Lica Pharmaceuticals A/S, priority 2002, dated 2008):
Values after ≈ are worked out from the molar mass of the structure shown.

Tests used:
[1] = tested on: L. major promastigotes; assay: Leishmania promastigote assay
[2] = tested on: panel of 10 different non-fastidious bacteria; assay: Screening against panel of non-fastidious bacteria
[3] = tested on: Bacteroides fragilis, Clostridium perfringens, Clostridium difficele; assay type: cell-based; details: single concentration of compound (100 μM)
[4] = tested on: dihydroorotate dehydrogenase (DHODH); assay: DHODH assay; assay type: biochemical; details: at 10 μM
Protocol: 100 μl chalcone or 0.1 M Tris-HCl pH 8.0 is added to a well in a 96-wells microtiter plate. Then 50 μl enzyme dilution is added. The microtiter plate is placed in the Powerwavex340 and the enzymatic reactions starts when adding 100 μl assay mixture. The reaction are measured every 20 sec. for 10 min. The samples with chalcones are compared with the samples with 0.1 M Tris-HCl pH 8.0 and the percent inhibition is calculated.
Enzyme dilution: The solution of recombinant purified enzyme is dissolved in 0.1 M Tris-HCl pH 8 to give an initial velocity of 0.04-0.05 ΔA/min.
2,6-dichlorophenolindophenol (DCIP)-stock solution: 40 mg DCIP and 10 ml 99% Ethanol are mixed for 10 min at RT. Then 100 μl 1.0 M Tris-HCl pH 8 and miliQ H2O are added to a final volume of 100 ml. The A600 of the DCIP-stock solution are measured in a microtiter plate on the Powerwavex340 (Bio-Tek instruments,Inc.)
[…]: 25 mM dihydroorotate stock-solution is prepared by first dissolving in the same amount of mol NaOH and then miliQ H2O is added to the final volume.
Assay mix (10 ml solution): 600 μl of DHODH-stock solution and X ml (depending on the A600 value of stock-solution) DCIP to a final A600=2.5 are mixed. Then 0.1 M Tris-HCl pH 8.0 are added to a final volume of 10 ml.
Preparation of compound soluton: A 10 mM stock-solution of compound (e.g. a chalcone derivative) is made in dimethylsulfoxid (DMSO). The compound is then diluted in 0.1 M Tris-HCl pH 8 to the test concentrations. The final DMSO concentration in the sample is 10%

[5] = Pharmacokinetic studies; assay type: in vivo, mice; details: in mice
Protocol: Samples of serum were taken at defined timepoints.
The supernatant was used for the analysis.
The flow rate was […], injection volume 10 μl.

[6] = tested on: Plasmodium berghei K173; details: NMRI female mice; for effect on development of the infection: multiple oral administrations, FIG. 7
[7] = tested on: Plasmodium falciparum 3D7; assay: Plasmodium falciparum assay; assay type: cell-based; details: Plasmodium falciparum 3D7 (Table 2); read-out: IC50
[8] = tested on: Enterococcus faecium #17501 (vancomycin-resistant clinical isolate); assay: MIC determination in broth microdilution assay; details: E: Enterococcus faecium #17501 (vancomycin-resistant)
[9] = Determination of metabolic stability (liver microsomes); assay type: in vitro ADME; details: rat liver microsomes, 20 μM, 15 min
Protocol: Determination of Metabolic Stability
Incubations were performed with Wistar rat liver microsomes (0.25 mg/ml) in 2% sodium bicarbonate solution. NADP (0.13 mg/ml), glucose-6-phosphate (0.63 mg/ml) and glucose-6-phosphate dehydrogenase (0.38 units/ml) were used as NADPH generation system and UDPGA (0.48 mg/ml) was added to include the phase II reaction, glucuronic acid conjugation, in the assay. After 5 minutes of pre-incubation the reaction was started by addition of the test article to give a final concentration of 20 μM. Samples were incubated for 15 min at 37° C. and the reactions were terminated by addition of equal volumes of acetonitrile. Blank incubations were performed at the same concentration but without addition of microsomes. Both blank and microsome-containing samples were made in replicats of three. Prior to analysis samples were centrifuged for 10 min. at 3500 rpm,HPLC system:
Initial conditions were 40% mobile phase A (acetonitrile) and 60% mobile phase B (10 mM ammonium acetate pH 9.5). During the first 20 minutes, the mobile phase was changed via a linear gradient to 90% A and 10% B. This was followed by a 5 minutes linear gradient to initial conditions, which were maintained for 5 min. The flow rate was 0.20 m)/min and injection volume 10 μl.

[10] = tested on: Eschericia coli ATCC25922; assay: MIC determination in broth microdilution assay
[11] = tested on: Enterococcus faecalis ATCC29212; assay: MIC determination in broth microdilution assay; details: D: Enterococcus faecalis ATCC29212
[12] = tested on: Eschericia coli ESS; assay: MIC determination in broth microdilution assay
[13] = tested on: Staphylococcus aureus ATCC33591(resistant to methicillin); assay: MIC determination in broth microdilution assay; details: B: Staphylococcus aureus ATCC33591(resistant to methicillin)
[14] = tested on: Staphylococcus aureus ATCC29213; assay: MIC determination in broth microdilution assay; details: A: Staphylococcus aureus ATCC29213

COc1ccc(C(=O)/C=C/c2cc(-c3ccccc3OC)ccc2OCCN(C)C)c(F)c1 [Compound C015, (E)-3-[4-(2-Dimethylamino-ethoxy)-2′-methoxy-biphenyl-3-yl]-1-(2-fluoro-4-methoxy-phenyl)-propenone]
IC50 ([1]; L. major): 100 nM | potency against Gram-positive pathogens in comparison with Licochalcone A [2]: increased potency | activity against anaerobic bacteria [3]: activity against all microorganisms within the test panel

COc1ccc(C(=O)/C=C/c2cc(-c3ccccc3C)ccc2OCCN(C)C)c(Cl)c1 [Compound C022, (E)-1-(2-Chloro-4-methoxy-phenyl)-3-[4-(2-dimethylamino-ethoxy)-2′-methyl-biphenyl-3-yl]-propenone]
Inhibition of DHODH [4]: 21%

COc1ccc(C(=O)/C=C/c2cccc(OCCN(C)C)c2)c(OC)c1OC [Compound C043, (E)-3-[3-(2-Dimethylamino-ethoxy)-phenyl]-1-(2,3,4-trimethoxy-phenyl)-propenone]
bioavailability [5]: 42%

COc1ccc(C(=O)/C=C/c2cc(-c3ccccc3C)ccc2OCCN(C)C)cc1 [Compound C019, (E)-3-[4-(2-Dimethylamino-ethoxy)-2′-methyl-biphenyl-3-yl]-1-(4-methoxy-phenyl)-propenone]
times more potent than LicA ([1]; dose-respons curve at Leishmania Major, FIG. 5): 100 times | Inhibition of DHODH [4]: 18%

Cc1ccccc1-c1ccc(OCCN(C)C)c(/C=C/C(=O)c2ccccc2CN(C)C)c1 [Compound C035, (E)-3-[4-(2-Dimethylamino-ethoxy)-2′-methyl-biphenyl-3-yl]-1-(2-dimethylaminomethyl-phenyl)-propenone]
effect on parasitaemia ([6]; multiple intra venous administrations, FIG. 6): significant decrease in the parasitaemia | IC50 [7]: 100 nM

CN(C)CCCOc1ccc(C(C)(C)C)cc1/C=C/C(=O)c1ccccc1NS(=O)(=O)c1ccccc1 [Compound C042, N-(2-{3-[5-tert-Butyl-2-(3-dimethylamino-propoxy)-phenyl]-(E)-acryloyl}-phenyl)-benzenesulfonamide]
IC50 ([1]; Leishmania major): 200 nM | potency against Gram-positive pathogens in comparison with Licochalcone A [2]: increased potency | activity against anaerobic bacteria [3]: activity against all microorganisms within the test panel

COc1ccc(C(=O)/C=C/c2cc(-c3ccccc3C)ccc2OCCN(C)C)c(F)c1 [Compound C020, (E)-3-[4-(2-Dimethylamino-ethoxy)-2′-methyl-biphenyl-3-yl]-1-(2-fluoro-4-methoxy-phenyl)-propenone]
IC50 ([1]; L. major): 30 nM | Inhibition of DHODH [4]: 18%

Cc1cc(C)cc(-c2ccc(OCCN(C)C)c(/C=C/C(=O)c3ccccc3NCCN(C)C)c2)c1 [Compound C074, (E)-3-[4-(2-Dimethylamino-ethoxy)-3′,5′-dimethyl-biphenyl-3-yl]-1-[2-(2-dimethylamino-ethylamino)-phenyl]-propenone]
MIC [8]: 9.4 µM (≈ 4.57 µg/mL) | Metabolic turn-over in vitro [9]: 7% | activity against E coli ATCC25922 [10]: high activity | MIC ([10]; G: Eschericia coli ATCC25922): 9.4 µM (≈ 4.57 µg/mL) | MIC [11]: 9.4 µM (≈ 4.57 µg/mL) | activity against ESS strain of E.coli [12]: high activity | MIC ([12]; H: Eschericia coli ESS): 4.7 µM (≈ 2.28 µg/mL) | MIC [13]: 9.4 µM (≈ 4.57 µg/mL) | MIC [14]: 9.4 µM (≈ 4.57 µg/mL) | activity against anaerobic bacteria [3]: activity against all microorganisms within the test panel

Cc1cc(C)cc(-c2ccc(OCCN(C)C)c(C=CC(=O)c3cccc(F)c3)c2)c1 [Compound C079, (E)-3-[4-(2-Dimethylamino-ethoxy)-3′,5′-dimethyl-biphenyl-3-y]-1-(3-fluoro-phenyl)-propenone]
activity against anaerobic bacteria [3]: activity against all microorganisms within the test panel

COc1ccc(C(=O)/C=C/c2ccccc2)cc1 [4′MC, 4′-methoxy chalcone, reference compound]
antibacterial effect [2]: no antibacterial effect at all | Inhibition of DHODH [4]: 7%

COc1ccc(C(=O)/C=C/c2cc(C(C)(C)C)cc(C(C)(C)C)c2OCCN(C)C)c(F)c1 [Compound C028, (E)-3-[3,5-Di-tert-butyl-2-(2-dimethylamino-ethoxy)-phenyl]-1-(2-fluoro-4-methoxy-phenyl)-propenone]
Inhibition of DHODH [4]: 23% | activity against anaerobic bacteria [3]: activity against all microorganisms within the test panel

CN(C)CCOc1ccc(C(C)(C)C)cc1/C=C/C(=O)c1ccccc1NS(=O)(=O)c1ccccc1 [Compound C027, N-(2-{3-[5-tert-Butyl-2-(2-dimethylamino-ethoxy)-phenyl]-(E)-acryloyl}-phenyl)-benzenesulfonamide]
Inhibition of DHODH [4]: 22%

COc1ccc(C(=O)/C=C/c2cc(-c3ccccc3C)ccc2OCCN(C)C)c(CN(C)C)c1 [Compound C114, (E)-3-[4-(2-Dimethylamino-ethoxy)-2′-methyl-biphenyl-3-yl]-1-(2-imethylaminomethyl-4-methoxy-phenyl)-propenone]
effect on development of the infection [6]: inhibit the development of the infection

COc1ccc(C(=O)/C=C/c2cc(-c3cc(C)cc(C)c3)ccc2OCCN(C)C)c(OC)c1OC [Compound C025, (E)-3-[4-(2-Dimethylamino-ethoxy)-3′,5′-dimethyl-biphenyl-3-yl]-1-(2,3,4-trimethoxy-phenyl)-propenone]
activity against anaerobic bacteria [3]: activity against all microorganisms within the test panel

CN(C)CCOc1ccc(-c2ccccc2Cl)cc1/C=C/C(=O)c1ccccc1CN(C)C [Compound C128, (E)-3-[2′-Chloro-4-(2-dimethylamino-ethoxy)-biphenyl-3-yl]-1-(2-dimethylaminomethyl-phenyl)-propenone]
effect on development of the infection [6]: inhibit the development of the infection

COc1ccc(C(=O)/C=C/c2cc(-c3cc(C)cc(C)c3)ccc2OCCN(C)C)c(Cl)c1 [Compound C026, (E)-1-(2-Chloro-4-methoxy-phenyl)-3-[4-(2-dimethylamino-ethoxy)-3′,5′-dimethyl-biphenyl-3-yl]-propenone]
Inhibition of DHODH [4]: 19% | activity against anaerobic bacteria [3]: activity against all microorganisms within the test panel

Cc1ccccc1-c1ccc(OCCN(C)C)c(/C=C/C(=O)c2ccccc2CN2CCCC2)c1 [Compound C119, (E)-3-[4-(2-Dimethylamino-ethoxy)-2′-methyl-biphenyl-3-yl]-1-(2-pyrrolidin-1-ylmethyl-phenyl)-propenone]
effect on development of the infection [6]: inhibit the development of the infection
